Values quoted from earlier work as cited in patent US10392388B2, “Meropenem derivatives and uses thereof” (Kala Pharmaceuticals, Inc., priority 2013, dated 2019).

For `C[C@@H](O)[C@H]1C(=O)N2C(C(=O)O)=C(S[C@@H]3CN[C@H](C(=O)N(C)C)C3)[C@H](C)[C@H]12` [Meropenem, meropenem], the water solubility is listed as over 1000 µg/mL and the MIC90 (Pseudomonas aeruginosa) is listed as “about 8 μg/mL”.
